# Organism: Rattus norvegicus
# Test: Open TG-GATES - Regimen: Daily Repeat
# Assay type: toxicity, organism-based, Sprague-Dawley
# Design: regimen Daily Repeat, gender Male, age 6 weeks
# Conditions: in vivo, po, route gavage; for APTT / Bas / Eos / Fbg / Ht / Lym / MCHC / MCV / Mono / Neu / PT / Plat / RBC / Ret: tissue Blood; for KIDNEY_L / KIDNEY_R / KIDNEY_TOTAL: tissue Kidney; for AST / CRE / GLC / IP / K / LDH / RALB / TBIL / TC / TP / gamma-GTP: tissue Plasma
# [1] = 30 mg/kg, 72 h, dose level Middle, time 3 day
# [2] = 30 mg/kg, […], dose level Middle, time 7 day
# [3] = 30 mg/kg, […], dose level Middle, time 14 day
# [4] = 30 mg/kg, […], dose level Middle, time 28 day
# [5] = 100 mg/kg, 72 h, dose level High, time 3 day
# [6] = 100 mg/kg, […], dose level High, time 7 day
# [7] = 100 mg/kg, […], dose level High, time 14 day
# [8] = 100 mg/kg, […], dose level High, time 28 day
smiles,measurement,setting,value
CN(C)CCCN1c2ccccc2CCc2ccccc21 [IMIPRAMINE],TERMINAL_BW,[1],214.6 g
same,APTT,[1],16.4 s
same,Bas,[1],0%
same,Eos,[1],1.4%
same,Fbg,[1],303.4 mg/dL
same,Ht,[1],44.3%
same,Lym,[1],83.8%
same,MCHC,[1],33%
same,MCV,[1],61.8 fL
same,Mono,[1],2%
same,Neu,[1],12%
same,PT,[1],16.9 s
same,Plat,[1],115.8 x10_4/uL
same,RBC,[1],717.2 x10_4/ul
same,Ret,[1],3.2%
same,KIDNEY_L,[1],0.9 g
same,KIDNEY_R,[1],0.9 g
same,KIDNEY_TOTAL,[1],1.8 g
same,AST,[1],58.8 IU/L
same,CRE,[1],0.2 mg/dL
same,GLC,[1],182.4 mg/dL
same,IP,[1],7.6 mg/dL
same,K,[1],4.3 meq/L
same,LDH,[1],90.4 IU/L
same,RALB,[1],2.6 g/dL
same,TBIL,[1],0.058 mg/dL
same,TC,[1],77 mg/dL
same,TP,[1],5.9 g/dL
same,gamma-GTP,[1],1 IU/L
same,TERMINAL_BW,[2],244.7 g
same,TERMINAL_BW,[3],294.7 g
same,TERMINAL_BW,[4],362.7 g
same,APTT,[2],16.2 s
same,Bas,[2],0%
same,Eos,[2],1%
same,Fbg,[2],323.8 mg/dL
same,Ht,[2],41.6%
same,Lym,[2],78.6%
same,MCHC,[2],33%
same,MCV,[2],61.3 fL
same,Mono,[2],2%
same,PT,[2],16.1 s
same,Plat,[2],118.6 x10_4/uL
same,RBC,[2],678.2 x10_4/ul
same,Ret,[2],3.9%
same,APTT,[3],16.3 s
same,Bas,[3],0%
same,Eos,[3],1.2%
same,Fbg,[3],303.2 mg/dL
same,Ht,[3],42.5%
same,Lym,[3],75.8%
same,MCHC,[3],33.4%
same,MCV,[3],59.7 fL
same,Mono,[3],2.6%
same,PT,[3],16.3 s
same,Plat,[3],107.7 x10_4/uL
same,RBC,[3],712.4 x10_4/ul
same,Ret,[3],4.3%
same,APTT,[4],16.2 s
same,Bas,[4],0.2%
same,Eos,[4],1.2%
same,Fbg,[4],305.2 mg/dL
same,Ht,[4],45.7%
same,Lym,[4],80.4%
same,MCHC,[4],33.7%
same,MCV,[4],57.1 fL
same,Mono,[4],2%
same,PT,[4],16.3 s
same,Plat,[4],101.3 x10_4/uL
same,RBC,[4],801 x10_4/ul
same,Ret,[4],2.4%
same,KIDNEY_L,[2],1.1 g
same,KIDNEY_R,[2],1.1 g
same,KIDNEY_TOTAL,[2],2.1 g
same,KIDNEY_L,[3],1.2 g
same,KIDNEY_R,[3],1.2 g
same,KIDNEY_TOTAL,[3],2.4 g
same,KIDNEY_L,[4],1.3 g
same,KIDNEY_R,[4],1.3 g
same,KIDNEY_TOTAL,[4],2.7 g
same,AST,[2],59 IU/L
same,CRE,[2],0.2 mg/dL
same,GLC,[2],173 mg/dL
same,IP,[2],7 mg/dL
same,K,[2],4.2 meq/L
same,LDH,[2],88.8 IU/L
same,RALB,[2],2.5 g/dL
same,TBIL,[2],0.044 mg/dL
same,TC,[2],85 mg/dL
same,TP,[2],5.8 g/dL
same,gamma-GTP,[2],0.4 IU/L
same,AST,[3],53.6 IU/L
same,CRE,[3],0.2 mg/dL
same,GLC,[3],170.8 mg/dL
same,IP,[3],6.9 mg/dL
same,K,[3],4.3 meq/L
same,LDH,[3],100.6 IU/L
same,RALB,[3],2.6 g/dL
same,TBIL,[3],0.046 mg/dL
same,TC,[3],88.2 mg/dL
same,TP,[3],5.9 g/dL
same,gamma-GTP,[3],0.6 IU/L
same,AST,[4],53.8 IU/L
same,CRE,[4],0.2 mg/dL
same,GLC,[4],164.6 mg/dL
same,IP,[4],7 mg/dL
same,K,[4],4 meq/L
same,LDH,[4],45.4 IU/L
same,RALB,[4],2.7 g/dL
same,TBIL,[4],0.056 mg/dL
same,TC,[4],73.8 mg/dL
same,TP,[4],6.3 g/dL
same,gamma-GTP,[4],1 IU/L
same,TERMINAL_BW,[5],197.8 g
same,APTT,[5],15.5 s
same,Bas,[5],0%
same,Eos,[5],1%
same,Fbg,[5],334.4 mg/dL
same,Ht,[5],45.9%
same,Lym,[5],74.8%
same,MCHC,[5],33%
same,MCV,[5],62.6 fL
same,Mono,[5],2.4%
same,PT,[5],16.5 s
same,Plat,[5],126.7 x10_4/uL
same,RBC,[5],733.8 x10_4/ul
same,Ret,[5],2.8%
same,KIDNEY_L,[5],0.9 g
same,KIDNEY_R,[5],0.9 g
same,KIDNEY_TOTAL,[5],1.8 g
same,AST,[5],57.2 IU/L
same,CRE,[5],0.2 mg/dL
same,GLC,[5],163.8 mg/dL
same,IP,[5],7.8 mg/dL
same,K,[5],4.3 meq/L
same,LDH,[5],57.8 IU/L
same,RALB,[5],2.5 g/dL
same,TBIL,[5],0.05 mg/dL
same,TC,[5],93.8 mg/dL
same,TP,[5],5.7 g/dL
same,gamma-GTP,[5],0.8 IU/L
same,TERMINAL_BW,[6],201.5 g
same,TERMINAL_BW,[7],221.4 g
same,TERMINAL_BW,[8],293.5 g
same,APTT,[6],15.9 s
same,Bas,[6],0%
same,Eos,[6],1%
same,Fbg,[6],347.8 mg/dL
same,Ht,[6],45.6%
same,Lym,[6],82.8%
same,MCHC,[6],33.3%
same,MCV,[6],59.9 fL
same,Mono,[6],1.8%
same,PT,[6],16.9 s
same,Plat,[6],109.5 x10_4/uL
same,RBC,[6],762.2 x10_4/ul
same,Ret,[6],1.4%
same,APTT,[7],18 s
same,Bas,[7],0.4%
same,Eos,[7],1.4%
same,Fbg,[7],329.4 mg/dL
same,Ht,[7],46.8%
same,Lym,[7],69.8%
same,MCHC,[7],33.5%
same,MCV,[7],60.2 fL
same,Mono,[7],4.4%
same,PT,[7],17.3 s
same,Plat,[7],98.5 x10_4/uL
same,RBC,[7],777.6 x10_4/ul
same,Ret,[7],1.7%
same,APTT,[8],16.4 s
same,Bas,[8],0.2%
same,Eos,[8],1.2%
same,Fbg,[8],377.5 mg/dL
same,Ht,[8],46.7%
same,Lym,[8],70%
same,MCHC,[8],33.8%
same,MCV,[8],55.4 fL
same,Mono,[8],3%
same,Neu,[8],25.2%
same,PT,[8],16 s
same,Plat,[8],93.4 x10_4/uL
same,RBC,[8],842.5 x10_4/ul
same,Ret,[8],2.6%
same,KIDNEY_L,[6],1 g
same,KIDNEY_R,[6],0.9 g
same,KIDNEY_TOTAL,[6],1.9 g
same,KIDNEY_L,[7],1 g
same,KIDNEY_R,[7],0.9 g
same,KIDNEY_TOTAL,[7],1.9 g
same,KIDNEY_L,[8],1.2 g
same,KIDNEY_R,[8],1.2 g
same,KIDNEY_TOTAL,[8],2.4 g
same,AST,[6],51.6 IU/L
same,CRE,[6],0.2 mg/dL
same,GLC,[6],162.6 mg/dL
same,IP,[6],7.2 mg/dL
same,K,[6],4.1 meq/L
same,LDH,[6],79 IU/L
same,RALB,[6],2.5 g/dL
same,TBIL,[6],0.048 mg/dL
same,TC,[6],102.6 mg/dL
same,TP,[6],5.6 g/dL
same,gamma-GTP,[6],0.2 IU/L
same,AST,[7],75.8 IU/L
same,CRE,[7],0.2 mg/dL
same,GLC,[7],155.8 mg/dL
same,IP,[7],6.9 mg/dL
same,K,[7],4.2 meq/L
same,LDH,[7],73.6 IU/L
same,RALB,[7],2.6 g/dL
same,TBIL,[7],0.04 mg/dL
same,TC,[7],74.6 mg/dL
same,TP,[7],5.8 g/dL
same,gamma-GTP,[7],1.2 IU/L
same,AST,[8],56 IU/L
same,CRE,[8],0.2 mg/dL
same,GLC,[8],148.5 mg/dL
same,IP,[8],7 mg/dL
same,K,[8],4.3 meq/L
same,LDH,[8],40.5 IU/L
same,RALB,[8],2.7 g/dL
same,TBIL,[8],0.0425 mg/dL
same,TC,[8],91.8 mg/dL
same,TP,[8],6.2 g/dL
same,gamma-GTP,[8],0.5 IU/L
